Assays:
human TLR7 = target: T1, human TLR7 (Homo sapiens, UniProt Q9NYK1); test: TLR7 cellular reporter assay (HEK293, NFκB-luc); format: cell-based; details: HEK293 cells transfected with CMV-TLR7 and NFκB-luc, 6 hours incubation; lowest effective concentration
T1 construct: expressed in transfected cells; host or cells: HEK293 cells, transient transfection with CMV-TLR7 plasmid and NFκB-luc plasmid
T1 sequence (Q9NYK1 27-1049): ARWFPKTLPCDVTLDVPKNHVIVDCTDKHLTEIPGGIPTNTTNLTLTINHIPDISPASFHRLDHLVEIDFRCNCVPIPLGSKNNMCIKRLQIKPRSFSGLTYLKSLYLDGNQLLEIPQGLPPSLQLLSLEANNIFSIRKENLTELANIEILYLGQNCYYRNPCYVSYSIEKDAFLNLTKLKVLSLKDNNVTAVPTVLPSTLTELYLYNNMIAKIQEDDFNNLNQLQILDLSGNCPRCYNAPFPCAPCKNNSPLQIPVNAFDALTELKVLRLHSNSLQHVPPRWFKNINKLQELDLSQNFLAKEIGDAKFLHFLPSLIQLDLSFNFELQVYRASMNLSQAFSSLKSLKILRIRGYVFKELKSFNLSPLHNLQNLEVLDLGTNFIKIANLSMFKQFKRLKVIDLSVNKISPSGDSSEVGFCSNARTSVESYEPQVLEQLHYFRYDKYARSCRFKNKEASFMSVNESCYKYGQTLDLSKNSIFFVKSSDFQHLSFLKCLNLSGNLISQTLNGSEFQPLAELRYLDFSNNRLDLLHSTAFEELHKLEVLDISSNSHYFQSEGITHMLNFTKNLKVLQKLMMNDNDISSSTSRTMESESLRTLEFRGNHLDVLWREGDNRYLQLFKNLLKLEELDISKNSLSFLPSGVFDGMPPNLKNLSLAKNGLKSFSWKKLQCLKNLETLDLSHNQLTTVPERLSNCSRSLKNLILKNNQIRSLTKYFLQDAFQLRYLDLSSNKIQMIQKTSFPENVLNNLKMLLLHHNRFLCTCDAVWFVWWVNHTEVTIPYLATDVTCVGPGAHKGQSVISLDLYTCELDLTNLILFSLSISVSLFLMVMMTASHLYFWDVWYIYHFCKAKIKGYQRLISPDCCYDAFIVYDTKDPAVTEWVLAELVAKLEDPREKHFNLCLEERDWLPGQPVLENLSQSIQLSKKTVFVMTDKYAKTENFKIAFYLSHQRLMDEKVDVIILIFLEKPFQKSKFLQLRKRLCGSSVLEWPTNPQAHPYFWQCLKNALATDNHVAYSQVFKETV
How it was run: (§1)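 HEK293 cells transiently transfected with receptor expression vector plus NFκB-luciferase reporter, exposed to compound (added in 4% DMSO) for 6 hours at 37° C, 5% CO2. Luciferase activity measured by luminescence; dose-response curves from quadruplicate measurements.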

human TLR8 = target: T2, human TLR8 (Homo sapiens, UniProt Q9NR97); test: TLR8 cellular reporter assay (HEK293, NFκB-luc); format: cell-based; details: HEK293 cells transfected with CMV-TLR8 and NFκB-luc, 6 hours incubation; lowest effective concentration
T2 construct: expressed in transfected cells; host or cells: HEK293 cells, transient transfection with TLR8 plasmid and NFκB-luc plasmid
T2 sequence (Q9NR97 27-1041): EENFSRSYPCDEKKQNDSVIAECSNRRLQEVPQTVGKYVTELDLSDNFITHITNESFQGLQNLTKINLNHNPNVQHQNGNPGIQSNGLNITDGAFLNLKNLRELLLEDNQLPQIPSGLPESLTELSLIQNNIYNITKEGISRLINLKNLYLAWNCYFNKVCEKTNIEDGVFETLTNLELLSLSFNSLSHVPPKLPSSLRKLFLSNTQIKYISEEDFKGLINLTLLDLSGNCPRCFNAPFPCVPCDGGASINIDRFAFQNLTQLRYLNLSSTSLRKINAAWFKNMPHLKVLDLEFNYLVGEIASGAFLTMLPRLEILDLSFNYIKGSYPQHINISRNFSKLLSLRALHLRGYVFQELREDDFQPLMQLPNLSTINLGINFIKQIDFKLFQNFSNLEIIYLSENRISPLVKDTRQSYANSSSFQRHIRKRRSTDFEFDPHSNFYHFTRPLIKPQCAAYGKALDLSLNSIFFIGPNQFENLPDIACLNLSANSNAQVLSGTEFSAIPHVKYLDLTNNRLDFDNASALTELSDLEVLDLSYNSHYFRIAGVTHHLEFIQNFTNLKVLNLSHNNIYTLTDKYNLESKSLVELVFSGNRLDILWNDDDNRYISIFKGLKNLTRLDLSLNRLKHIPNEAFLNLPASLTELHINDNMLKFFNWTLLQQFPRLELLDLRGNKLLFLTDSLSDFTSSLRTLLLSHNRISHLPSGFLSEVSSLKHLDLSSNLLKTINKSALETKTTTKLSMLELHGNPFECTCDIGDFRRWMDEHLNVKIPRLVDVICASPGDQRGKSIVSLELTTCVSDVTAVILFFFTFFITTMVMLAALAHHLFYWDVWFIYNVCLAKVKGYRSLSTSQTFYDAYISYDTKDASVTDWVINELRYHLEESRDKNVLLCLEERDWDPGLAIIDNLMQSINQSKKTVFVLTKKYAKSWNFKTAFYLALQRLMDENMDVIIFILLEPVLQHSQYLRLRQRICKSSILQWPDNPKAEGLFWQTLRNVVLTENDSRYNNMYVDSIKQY
How it was run: as §1

[1] = system: interferon-stimulated responsive elements (ISRE); test: Activation of ISRE promoter elements by conditioned media from PBMC (HEK-ISREluc); format: cell-based, human; details: Homo sapiens; conditioned media from PBMC transferred to HEK-ISREluc cells, 24 hours; lowest effective concentration; read-out: PBMC LEC
How it was run: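 Human PBMCs (≥2 donors, RPMI + 10% human AB serum, 2×10^5 cells/well) incubated overnight with compound; supernatant transferred to HEK293 cells stably carrying pISRE-Luc for 24 h, then luciferase read. LEC = compound concentration on PBMCs giving luciferase signal at least two-fold above assay SD; recombinant IFN-α-2a standard.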

Compound	TLR7 LEC (human TLR7) [µM]	TLR8 LEC (human TLR8) [µM]	minimal effective concentration [1] [µM]
CCCC(C)Nc1nc(N)nc2ccn(Cc3c(OC)cccc3OC)c12 (stereo not drawn) [Compound 98]	<0.01	0.22	0.001
CCCC[C@@H](CCO)Nc1nc(N)nc2ccn(Cc3c(OC)cccc3OC)c12 [Compound 99]	<0.01	0.1	< 0.001
CCC[C@@H](CO)Nc1nc(N)nc2ccn(Cc3c(OC)cccc3OC)c12 [Compound 100]	<0.01	0.04	< 0.001
CCC[C@@H](CCO)Nc1nc(N)nc2ccn(Cc3c(OC)cccc3OC)c12 [Compound 102]	<0.01	0.14	< 0.001
COCCn1ccc2nc(N)nc(NC(C)c3ccccn3)c21 (stereo not drawn) [Compound 105]	0.827	>25	0.194
CCC[C@@H](CCO)Nc1nc(N)nc2ccn(Cc3cccc(OC)c3)c12 [Compound 109]	0.005	7.17	0.003
COc1ccccc1Cn1ccc2nc(N)nc(NCc3cc(C)on3)c21 [Compound 110]	0.002	>25	0.001
COCCNc1nc(N)nc2ccn(Cc3cccc(CN4CCCC4)c3)c12 [Compound 111]	0.637	>25	0.293
Cc1cc(CNc2nc(N)nc3ccn(Cc4ccncc4)c23)no1 [Compound 112]	0.741	>25	0.209
COCCNc1nc(N)nc2ccn(Cc3ccc(C(F)(F)F)cn3)c12 [Compound 117]	2.950	>22.7	1.43
COc1cnccc1Cn1ccc2nc(N)nc(NCc3cc(C)on3)c21 [Compound 123]	0.026	>25	0.002
COCCn1ccc2nc(N)nc(NCc3cc(C)on3)c21 [Compound 128]	0.342	>25	0.062
CCOc1ccccc1Cn1ccc2nc(N)nc(NCCOC)c21 [Compound 129]	0.670	>25	0.122
CCCCNc1nc(N)nc2ccn(Cc3ccccc3OC(F)(F)F)c12 [Compound 130]	1.940	>25	0.804
CCCCNc1nc(N)nc2ccn(Cc3ccccc3OCC)c12 [Compound 133]	0.07	>25	0.023
Nc1nc(NCC2CCCO2)c2c(ccn2Cc2ccccn2)n1 (stereo not drawn) [Compound 139]	1.41	>25	0.588

Now from value to compound, other results behind:

TLR7 LEC (human TLR7) [µM]	TLR8 LEC (human TLR8) [µM]	Compound	minimal effective concentration [1] [µM]
<0.01	0.08	CCCC[C@@H](CO)Nc1nc(N)nc2ccn(Cc3c(OC)cccc3OC)c12 [Compound 101]	< 0.001
0.032	>25	COCCNc1nc(N)nc2ccn(Cc3ccccc3OC)c12 [Compound 103]	0.018
11.960	>25	CC(Nc1nc(N)nc2ccn(C)c12)c1ccccn1 (stereo not drawn) [Compound 104]	1.98
2.030	>25	COCCNc1nc(N)nc2ccn(Cc3cccc(OC)c3)c12 [Compound 107]	2.13
0.126	>25	CC(C)c1cc(CNc2nc(N)nc3ccn(Cc4cscn4)c23)no1 [Compound 108]	0.07
1.320	>25	COCCNc1nc(N)nc2ccn(Cc3cccc(C)n3)c12 [Compound 113]	0.807
0.241	7.93	COCCNc1nc(N)nc2ccn(Cc3ncccc3OC)c12 [Compound 115]	0.079
0.049	>25	CCCCNc1nc(N)nc2ccn(Cc3cccc(CN4CCCC4)c3)c12 [Compound 116]	0.022
1.650	>25	COCCNc1nc(N)nc2ccn(Cc3ccncc3)c12 [Compound 118]	3.01
3.220	>25	COCCNc1nc(N)nc2ccn(Cc3cc(OC)ccn3)c12 [Compound 120]	2.16
0.172	>25	COCCNc1nc(N)nc2ccn(Cc3ccncc3OC)c12 [Compound 121]	0.046
5.99	>25	COCCNc1nc(N)nc2ccn(Cc3cscn3)c12 [Compound 132]	0.879
1.20	>25	CCCCNc1nc(N)nc2ccn(Cc3cc(OC4CCOC4)c(OC)cn3)c12 (stereo not drawn) [Compound 134]	0.104
12.5	>25	COCCNc1nc(N)nc2ccn(Cc3cc(OC4CCOC4)c(OC)cn3)c12 (stereo not drawn) [Compound 135]	4.05
13.8	>25	CC(C)OCCNc1nc(N)nc2ccn(Cc3ccccn3)c12 [Compound 137]	2.03
0.10	>25	Cc1cc(CNc2nc(N)nc3ccn(Cc4cccc(C(F)(F)F)n4)c23)no1 [Compound 143]	0.016
4.49	>25	COCCNc1nc(N)nc2ccn(Cc3ncc(C)c(OC)c3C)c12 [Compound 147]	2.02
0.16	3.93	CCCCNc1nc(N)nc2ccn(C[C@H]3CCCO3)c12 [Compound 148]	0.056
